Results reported in US8846760B2, “Dihydronaphthalene and naphthalene derivatives as N-formyl peptide receptor like-1 (FPRL-1) receptor modulators” (Allergan, Inc., priority 2011, dated 2014).

Biological target: T1, FPRL-1 (Homo sapiens, UniProt P25090)
T1 construct: expressed in transfected cells
T1 sequence (P25090 1-351): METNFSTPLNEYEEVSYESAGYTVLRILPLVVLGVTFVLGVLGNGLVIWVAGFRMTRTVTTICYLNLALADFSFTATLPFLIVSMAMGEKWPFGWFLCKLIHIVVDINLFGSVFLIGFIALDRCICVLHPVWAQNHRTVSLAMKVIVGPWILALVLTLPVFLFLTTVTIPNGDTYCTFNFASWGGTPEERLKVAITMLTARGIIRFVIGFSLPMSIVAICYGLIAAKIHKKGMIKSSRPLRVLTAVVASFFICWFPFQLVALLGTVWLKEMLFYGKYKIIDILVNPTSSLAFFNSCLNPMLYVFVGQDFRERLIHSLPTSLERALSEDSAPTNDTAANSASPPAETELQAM
Experiment: Compound-induced calcium activity on FLIPR Tetra in CHO-Gα16 cells stably expressing FPRL1
Format: cell-based
Conditions: for Emax: efficacy, read-out: FPRL-1 Ga16-CHO (eff %); for EC50: tested 0.61 to 10,000 nM, read-out: FPRL-1 Ga16-CHO EC50
Description: CHO-Gα16 cells stably expressing FPRL1 were cultured in (F12, 10% FBS, 1% PSA, 400 μg/ml geneticin and 50 μg/ml hygromycin) and HEK-Gqi5 cells stable expressing FPR1 were cultured in (DMEM high glucose, 10% FBS, 1% PSA, 400 μg/ml geneticin and 50 μg/ml hygromycin). In general, the day before the experiment, 18,000 cells/well were plated in a 384-well clear bottom poly-d-lysine coated plate. The following day the screening compound-induced calcium activity was assayed on the FLIPR^Tetra. The drug plates were prepared in 384-well microplates using the EP3 and the MultiPROBE robotic liquid handling systems. Compounds were tested at concentrations ranging from 0.61 to 10,000 nM. Results are expressed as EC50 (nM) and efficacy values.

Structure (SMILES)	Emax	EC50
O=C(O)C1=C(C(=O)Nc2ccc(Br)cc2)CCc2c1cccc2-c1ccccc1 [Compound 5, 2-{[(4-Bromophenyl)amino]carbonyl}-5-phenyl-3,4-dihydronaphthalene-1-carboxylic acid]	100%	0.566 µM
CC(C)(C)c1ccc2c(c1)C(C(=O)O)=C(C(=O)Nc1ccc(Br)cc1)CC2 [Compound 2, 2-{[(4-Bromophenyl)amino]carbonyl}-7-tert-butyl-3,4-dihydronaphthalene-1-carboxylic acid]	86%	1.32 µM
O=C(O)C1=C(C(=O)Nc2ccc(Br)cc2)CCc2ccc(Cl)cc21 [Compound 4, 2-{[(4-Bromophenyl)amino]carbonyl}-7-chloro-3,4-dihydronaphthalene-1-carboxylic acid]	81%	0.777 µM
Cc1ccc(C)c2c1CCC(C(=O)Nc1ccc(Br)cc1)=C2C(=O)O [Compound 8, 2-{[(4-Bromophenyl)amino]carbonyl}-5,8-dimethyl-3,4-dihydronaphthalene-1-carboxylic acid]	93%	0.198 µM
CC1(C)CCC(C)(C)c2cc(C(=O)Nc3ccc(Br)cc3)c(C(=O)O)cc21 [Compound 10, 3-{[(4-Bromophenyl)amino]carbonyl}-5,5,8,8-tetramethyl-5,6,7,8-tetrahydronaphthalene-2-carboxylic acid]	58%	1.56 µM
O=C(Nc1ccc(Br)cc1)c1ccc2ccccc2c1C(=O)O [Compound 11, 2-{[(4-Bromophenyl)amino]carbonyl}-1-naphthoic acid]	100%	1.29 µM
CC1(C)CC(C(=O)Nc2ccc(Br)cc2)=C(C(=O)O)c2ccccc21 [Compound 3, 2-{[(4-Bromophenyl)amino]carbonyl}-4,4-dimethyl-3,4-dihydronaphthalene-1-carboxylic acid]	95%	0.087 µM
O=C(O)C1=C(C(=O)Nc2ccc(Br)cc2)CCc2ccccc21 [Compound 6, 2-{[(4-Bromophenyl)amino]carbonyl}-3,4-dihydronaphthalene-1-carboxylic acid]	90%	0.383 µM
CCc1cc(C(=O)Nc2ccc(Br)cc2)c(C(=O)O)c2ccccc12 [Compound 12, 2-{[(4-Bromophenyl)amino]carbonyl}-4-ethyl-1-naphthoic acid]	95%	0.165 µM
Cc1cc(C)c2c(c1)C(C(=O)O)=C(C(=O)Nc1ccc(Br)cc1)CC2 [Compound 7, 2-{[(4-Bromophenyl)amino]carbonyl}-5,7-dimethyl-3,4-dihydronaphthalene-1-carboxylic acid]	95%	3.92 µM
O=C(O)c1cc2ccccc2cc1C(=O)Nc1ccc(Br)cc1 [Compound 9, 3-{[(4-Bromophenyl)amino]carbonyl}-2-naphthoic acid]	92%	5.93 µM
CC(C)c1cccc2c1CCC(C(=O)Nc1ccc(Br)cc1)=C2C(=O)O [Compound 1, 2-{[(4-Bromophenyl)amino]carbonyl}-5-isopropyl-3,4-dihydronaphthalene-1-carboxylic Acid]	80%	0.756 µM
